Assay results reported in patent publication US20110280940A1, “Di-Vanilloyl And Tri-Vanilloyl Derivatives For Use In Anti-Cancer Therapy” (priority 2008, published 2011).

Assays:
[1] = tested on: A549 non-small-cell-lung cancer cell line; experiment: Cellular imaging (quantitative videomicroscopy), global growth ratio, A549; type: cell-based; conditions: Homo sapiens, 72 h, read-out: Global Grow Ratio Treated/Ct (GGR T/Ct) determined by Video Quantitative microscopy, A549
Description: (§1) As the MTT test is based on the mitochondria functions, we also investigated the effects of the di- and tri-vanilloyl derivatives according to the invention on cell proliferation, migration and morphology by means of a cellular imaging approach (Debeir et al., Cytometry 60:29-40, 2004; Debeir et al., IEEE Trans Med Imaging 24:697-711, 2005) either in the human U373-MG glioma cell line, which is apoptosis-resistant but autophagy-sensitive (Lefranc F et al., Neurosurgery 2008) and in the human A549 non-small-cell-lung cancer cell line, which is apoptosis-resistant and autophagy-resistant (Mijatovic T et al., Neoplasia 2006, May; 8(5):402-12).
(§2) Investigations have also been performed in human normal fibroblasts (WS1 and WI38—see Tables 4 and 5). Cellular imaging relied on the use of computer-assisted phase-contrast microscopy making possible to film the behaviour of living cells in culture dishes for several days.
(§3) Cells were seeded in a 25-cm^2 flask at a low density, treated or not with the vanilloyl-esters invention (at a concentration of 50 μM) and filmed thereafter for a period of 72 h. The experiment was conducted in quadruplicates (in duplicates for DLT-95 compounds).
(§4) The behaviour of the cells, in terms of morphology, growth and death were thus investigated. The effect on the overall growth was measured by counting the number of cells on the first (0 h) and the last image (72 h) of each film. The global growth ratio (GGR) was then deduced by dividing the number of cells on the last image by the number of cells on the first image. The ratio GGRtreated cells/GGRcontrol cells, was further calculated thereby obtaining a value that describes the effect of compounds of the present invention on the overall cell growth. The methodology is fully described and validated in Debeir et al., 2008, Exp Cell Res 314:2985-2998 and Mathieu et al., 2009, J Cell Mol Med, Feb. 20, 2009.
(§5) Illustrative pictures (time=0 h and 72 h) of glioblastoma and normal fibroblast cell line left untreated or treated with poly-vanillic compounds according to the invention (50 μM) are provided in FIG. 1 (U373 glioblastoma) and FIG. 2 (normal fibroblasts). The GGR parameter analyses confirmed the marked impairment of cell growth in both cancer cell lines of the poly-vanillic compounds according to the invention (Table 5).

[2] = tested on: VM48 melanoma cells; experiment: MTT colorimetric assay, overall cell growth, VM48; type: cell-based, human; conditions: Homo sapiens; MTT, 72 hours of incubation; read-out: In Vitro IC50 Growth Inhibitory Values, VM48
[3] = target: pfGSK3 (Plasmodium falciparum, UniProt O77344); experiment: Kinase activity assay, pfGSK3; type: biochemical; conditions: 10 μM, 1% DMSO, 15 μM ATP; residual activity
Chain of pfGSK3 (O77344 1-440): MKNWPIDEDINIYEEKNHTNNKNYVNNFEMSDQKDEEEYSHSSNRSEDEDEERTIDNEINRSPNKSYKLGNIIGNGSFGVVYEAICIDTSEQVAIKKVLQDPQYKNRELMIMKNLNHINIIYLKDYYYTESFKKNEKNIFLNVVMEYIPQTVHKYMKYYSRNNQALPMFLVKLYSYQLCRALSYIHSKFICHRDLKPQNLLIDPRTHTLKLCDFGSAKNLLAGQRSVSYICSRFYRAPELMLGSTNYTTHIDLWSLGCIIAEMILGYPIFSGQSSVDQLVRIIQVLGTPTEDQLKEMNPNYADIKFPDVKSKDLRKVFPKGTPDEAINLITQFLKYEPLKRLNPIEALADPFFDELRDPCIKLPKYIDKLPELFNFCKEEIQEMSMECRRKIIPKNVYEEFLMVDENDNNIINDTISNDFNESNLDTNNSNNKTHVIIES
Method: (§6) Buffer A: 10 mM MgCl2, 1 mM EGTA, 1 mM DTT, 25 mM Tris-HCl pH 7.5, 50 μg heparin/ml. Buffer C: 60 mM β-glycerophosphate, 15 mM p-nitrophenylphosphate, 25 mM Mops (pH 7.2), 5 mM EGTA, 15 mM MgCl2, 1 mM DTT, 1 mM sodium vanadate, 1 mM phenyl phosphate.
(§7) Kinase activities were assayed in Buffer A or C, at 30° C., at a final ATP concentration of 15 μM. Blank values were subtracted and activities expressed in % of the maximal activity, i.e. in the absence of inhibitors. Controls were performed with appropriate dilutions of DMSO.

[4] = tested on: VM21 melanoma cells; experiment: MTT colorimetric assay, overall cell growth, VM21; type: cell-based, human; conditions: Homo sapiens; MTT, 72 hours of incubation; read-out: In Vitro IC50 Growth Inhibitory Values, VM21
How it was run: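 Seed cells in their own medium and incubate 24 h at 37 °C. Replace medium with compound-containing medium (10^-8 to 10^-4 M) and incubate 72 h.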

[5] = tested on: GSK-3; experiment: Kinase activity assay, GSK3; type: biochemical, porcine; conditions: 10 μM, 1% DMSO, 15 μM ATP; residual activity
Method: as §6, §7
GSK-3 (porcine brain, native) was assayed, as described for CDK1 but in Buffer A and using a GSK-3 specific substrate (GS-1: […]pEDEEE) (Seq. ID NO 1) (pS stands for phosphorylated serine) (Primot et al., 2000, Protein Expr. & Purif. 20 (3), 394-404). GS-1 was synthesized by Millegen (Labege, France).

[6] = target: T1, CDK2/cyclin A (Homo sapiens, UniProt P24941); experiment: Kinase activity assay, CDK2A; type: biochemical; conditions: 10 μM, 1% DMSO, 15 μM ATP; residual activity
T1 construct: made in house
Method: as §6, §7
(§8) CDK1/cyclin B (M phase starfish oocytes, native), CDK2/cyclin A, CDK2/cyclin E, CDK5/p25 and CDK7/cyclin H (human, recombinant) were prepared as previously described (Leclerc et al., 2001, J. Biol. Chem. 2001, 276, 251-260; Bach et al., 2005, J Biol Chem 280: 31208-31219). Their kinase activity was assayed in buffer C, with 1 mg histone H1/ml, in the presence of 15 μM [gamma-^33P] ATP (3,000 Ci/mmol; 10 mCi/ml) in a final volume of 30 μl. After 30 min incubation at 30° C., 25 μl aliquots of supernatant were spotted onto 2.5×3 cm pieces of Whatman P81 phosphocellulose paper, and, 20 sec later, the filters were washed five times (for at least 5 min each time) in a solution of 10 ml phosphoric acid/liter of water. The wet filters were counted in the presence of 1 ml ACS (Amersham) scintillation fluid.

[7] = tested on: U373-MG glioma cell line; experiment: Cellular imaging (quantitative videomicroscopy), global growth ratio, U373; type: cell-based; conditions: Homo sapiens, 50 μM, 72 h, read-out: Global Grow Ratio Treated/Ct (GGR T/Ct) determined by Video Quantitative microscopy, U373
Description: as §1, §2, §3, §4, §5

[8] = target: Erk2 (Rattus norvegicus, UniProt P63086); experiment: Kinase activity assay, Erk2; type: biochemical; conditions: 10 μM, 1% DMSO, 15 μM ATP; residual activity
Chain of Erk2 (P63086 whole entry): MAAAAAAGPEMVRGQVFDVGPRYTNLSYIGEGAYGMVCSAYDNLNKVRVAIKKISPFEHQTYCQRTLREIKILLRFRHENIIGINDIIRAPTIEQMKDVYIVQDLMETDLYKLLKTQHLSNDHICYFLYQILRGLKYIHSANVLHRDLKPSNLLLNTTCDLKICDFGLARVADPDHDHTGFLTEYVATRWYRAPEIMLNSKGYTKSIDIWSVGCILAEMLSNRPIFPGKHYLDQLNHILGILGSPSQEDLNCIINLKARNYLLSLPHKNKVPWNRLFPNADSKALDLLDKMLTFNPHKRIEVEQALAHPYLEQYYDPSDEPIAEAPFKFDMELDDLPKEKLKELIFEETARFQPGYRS
Method: as §6, §7
Erk2 (rat, recombinant) was assayed as described for CDK1 but using the specific substrate Ets1 (amino acids 1-138) in buffer A.

[9] = target: DYRK1A (Rattus norvegicus, UniProt Q63470); experiment: Kinase activity assay, DYRK1A (GST fusion, myelin basic protein substrate); type: biochemical
Method: as §6, §7
DYRK1A (rat, recombinant, expressed in E. coli as a GST fusion protein) was purified by affinity chromatography on glutathione-agarose and assayed as described for CDK1/cyclin B using myelin basic protein (1 mg/ml) as a substrate.

[10] = target: T2, CDK5/p25 (Homo sapiens, UniProt Q00535); experiment: Kinase activity assay, CDK5; type: biochemical; conditions: 10 μM, 1% DMSO, 15 μM ATP; residual activity
T2 construct: made in house
T2 sequence (Q00535 whole entry): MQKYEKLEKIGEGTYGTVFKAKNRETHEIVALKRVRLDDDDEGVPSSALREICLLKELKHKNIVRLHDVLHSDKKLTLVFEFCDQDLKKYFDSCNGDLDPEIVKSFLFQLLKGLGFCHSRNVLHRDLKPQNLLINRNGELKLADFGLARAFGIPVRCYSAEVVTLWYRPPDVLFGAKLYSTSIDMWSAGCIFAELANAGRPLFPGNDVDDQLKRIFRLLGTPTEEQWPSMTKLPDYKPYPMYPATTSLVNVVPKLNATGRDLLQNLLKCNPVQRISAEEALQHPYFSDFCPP
T2 sequence (Q15078 99-307 partner limits assumed): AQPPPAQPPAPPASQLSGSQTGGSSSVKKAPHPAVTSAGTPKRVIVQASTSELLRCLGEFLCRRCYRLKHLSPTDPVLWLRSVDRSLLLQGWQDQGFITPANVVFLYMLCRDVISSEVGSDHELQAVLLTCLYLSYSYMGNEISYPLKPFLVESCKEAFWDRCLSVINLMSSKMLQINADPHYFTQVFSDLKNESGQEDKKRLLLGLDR
Method: as §6, §7, §8

[11] = tested on: CK1; experiment: Kinase activity assay, CK1; type: biochemical, porcine; conditions: 10 μM, 1% DMSO, 15 μM ATP; residual activity
Method: as §6, §7
CK1 (porcine brain, native) was assayed as described for CDK1 but using the CK1-specific peptide substrate […]pSAYSITA (Seq. ID NO 2) (Reinhardt et al., 2007, Protein Expr. & Purif. 54, 101-109), obtained from Millegen (Labege, France).

[12] = tested on: WS1 normal fibroblasts; experiment: Cellular imaging (quantitative videomicroscopy), global growth ratio, WS1; type: cell-based, human; conditions: 50 μM, 72 h
Description: as §1
(§9) Investigations have also been performed in human normal fibroblasts (WS1 and WI38—see Tables 4 and 5). Cellular imaging relied on the use of computer-assisted phase-contrast microscopy making possible to film the behaviour of living cells in culture dishes for several days. […]
(§10) The behaviour of the cells, in terms of morphology, growth and death were thus investigated. The effect on the overall growth was measured by counting the number of cells on the first (0 h) and the last image (72 h) of each film. […] The ratio GGRtreated cells/GGRcontrol cells, was further calculated thereby obtaining a value that describes the effect of compounds of the present invention on the overall cell growth. […]

[13] = tested on: WI38 normal fibroblasts; experiment: Cellular imaging (quantitative videomicroscopy), global growth ratio, WI38; type: cell-based, human; conditions: 50 μM, 72 h
Description: as §1, §9, §10

[14] = tested on: cancer cells versus normal fibroblasts; experiment: Anti-proliferative, anti-migratory and anti-kinase effects, cancer cells versus normal fibroblasts; type: cell-based, human; conditions: anti-proliferative
Description: (§11) The compounds of the invention were subsequently evaluated for their 1) anti-proliferative effect (by means of the colorimetric MTT assay), 2) pro-autophagic and pro-apoptotic effect (by means of flow cytometry analyses), and 3) anti-migratory effect (by means of quantitative videomicroscopy), in the following human cancer cell-lines: a) U373, T98G and Hs683 glioblastoma cells, b) VM21 and VM48 melanoma cells, c) PC-3 prostate cancer cells, d) MCF-7 breast cancer cells, e) LoVo colon cancer cells, f) OE21 oesophageal cancer cells, and g) A549 NSCLC cancer cells, as well as in human WS1 and WI38 normal fibroblasts (i.e. non-cancer cells).
The best current hits, DLT12 and DLT4, display anti-proliferative, anti-migratory effects and anti-kinase effects which are ˜10 times more pronounced in cancer cells than in normal fibroblasts. […] FIG. 1 illustrates the data obtained with respect to the human U373 glioblastoma model, while FIG. 2 illustrates the data obtained in human normal fibroblasts. […] DLT-95 and its derivatives DLT-95-F and DLT-95-Cl were also shown to have a significant effect on the proliferation 7 different human cancer cell-lines.

[15] = tested on: cancer cell lines; experiment: Flow cytometry analyses of pro-autophagic and pro-apoptotic effects; type: cell-based, human; conditions: cancer cell lines studied
Description: as §11

| Structure (SMILES) | activity at 50 µM [1] [%] | IC50 [2] [µM] | % ENZYMATIC ACTIVITY, pfGSK3 [3] [%] | IC50 [4] [µM] | % ENZYMATIC ACTIVITY, GSK3 [5] [%] | % ENZYMATIC ACTIVITY, CDK2A [6] [%] | activity at 50 µM [7] [%] | % ENZYMATIC ACTIVITY, Erk2 [8] [%] | inhibition at 10 µM [9] [%] | % ENZYMATIC ACTIVITY, Dyrk1A ([9]; 10 μM, 1% DMSO, 15 μM ATP, residual activity) [%] | % ENZYMATIC ACTIVITY, CDK5 [10] [%] | % ENZYMATIC ACTIVITY, Ckone [11] [%] | Global Grow Ratio Treated/Ct (GGR T/Ct) determined by Video Quantitative microscopy, WS1 [12] | Global Grow Ratio Treated/Ct (GGR T/Ct) determined by Video Quantitative microscopy, WI38 [13] | effects more pronounced in cancer cells than in normal fibroblasts [14] [times] | pro-autophagic or pro-apoptotic effects [15] |
| --- | --- | --- | --- | --- | --- | --- | --- | --- | --- | --- | --- | --- | --- | --- | --- | --- |
| COc1cc(C(=O)OC2CCCC(OC(=O)c3ccc(O)c(OC)c3)C2)ccc1O (mixture of isomers) [DLT5, cis/trans-cyclohexane-1,3-diyl bis-(4-hydroxy-3-methoxybenzoate)] | 10 | 47 | 89 | 47 | 81 | 100 | 20 | 92 | 26 | 74 | 95 | 73 |  |  |  |  |
| COc1cc(C(=O)O[C@@H]2CCCC[C@H]2OC(=O)c2ccc(O)c(OC)c2)ccc1O (racemic) [DLT4, trans-cyclohexane-1,2-diyl bis-(4-hydroxy-3-methoxybenzoate)] | 20 |  |  |  |  |  | 20 |  |  |  |  |  | 1.0 | 0.9 | ~10 | does not induce pro-autophagic or pro-apoptotic effects |
